Values quoted from earlier work, collected in patent publication US20180008711A1, “TRIPLE ANTIBIOTIC CATIONIC OINTMENT” (priority 2015, published 2018).

Tests used:
bacteria = conditions: very low concentrations
[1] = system: Klebsiella pneumoniae (carbapenem-resistant enterobacteriaceae)
[2] = system: Staphylococcus aureus (also the methicillin-resistant type, MRSA)
[3] = system: vancomycin-resistant enterococci
[4] = system: Aspergillus brasiliensis (mold)

Row | Substance | bactericidal concentration (bacteria) [mg/1] | fungicidal (fungi) | effective against Escherichia coli (Escherichia coli) | effective against Klebsiella pneumoniae [1] | effective against Staphylococcus aureus [2] | effective against vancomycin-resistant enterococci [3] | effective against Candida albicans (Candida albicans (yeast)) | effective against Aspergillus brasiliensis [4] | effective against Pseudomonas aeruginosa (Pseudomonas aeruginosa)
1 | Polyaminopropylbiguanide [PAPB] | 10 | fungicidal | – | – | – | – | – | – | –
2 | polyhexamethylenebiguanide [PHMB] | – | – | effective | effective | effective | effective | effective | effective | effective
